Drawing on PubChem BioAssay AID1259407 (Chemical Carcinogenesis Research Information System (CCRIS), 2018), this text covers mutagenic call for 4 compounds.

In this data set the test system is CCRIS mutagenicity, Ames/micronucleus/aberration tests. Briefly: CCRIS mutagenicity studies.
Where [1] appears, read: Test System: AMES SALMONELLA TYPHIMURIUM, Strain/Indicator: TA1535, Metabolic Activation: NONE, Method: PREINCUBATION

Activity calls are given as the source filed them. No rule for the calls is given here.

On to `CCCCN(CCCC)N=O`, for which the mutagenic call is “active; positive” (Test System: AMES SALMONELLA TYPHIMURIUM, Strain/Indicator: TA100, Metabolic Activation: MOUSE, INTACT UROTHELIAL CELLS, Method: FLUCTUATION TEST); “active; positive” (Test System: AMES SALMONELLA TYPHIMURIUM, Strain/Indicator: TA100, Metabolic Activation: RAT, INTACT UROTHELIAL CELLS, Method: FLUCTUATION TEST); “active; positive” (Test System: AMES SALMONELLA TYPHIMURIUM, Strain/Indicator: TA100, Metabolic Activation: RAT, LIVER, S-9, AROCLOR 1254, Method: PREINCUBATION); “active; positive” (Test System: AMES SALMONELLA TYPHIMURIUM, Strain/Indicator: TA100, Metabolic Activation: RAT, LIVER, S-9, KC500 OR PHENOBARBITAL, Method: LIQUID SUSPENSION); “active; positive” (Test System: AMES SALMONELLA TYPHIMURIUM, Strain/Indicator: TA104, Metabolic Activation: RAT, LIVER, S-9, AROCLOR 1254, Method: PREINCUBATION); “active; positive” (Test System: AMES SALMONELLA TYPHIMURIUM, Strain/Indicator: TA1530, Metabolic Activation: RAT, LIVER, S-9, Method: STANDARD PLATE). Moreover, the mutagenic call reads like this: under setting [1], “inactive; negative”; (Test System: AMES SALMONELLA TYPHIMURIUM, Strain/Indicator: TA1535, Metabolic Activation: RAT, LIVER, HEPATOCYTES, Method: PREINCUBATION) “inactive; negative”; (Test System: AMES SALMONELLA TYPHIMURIUM, Strain/Indicator: TA1535, Metabolic Activation: RAT, LIVER, MICROSOMES, KANECHLOR 500, Method: PREINCUBATION) “active; positive”; (Test System: AMES SALMONELLA TYPHIMURIUM, Strain/Indicator: TA1535, Metabolic Activation: RAT, LIVER, S-9, AROCLOR 1254, Method: PREINCUBATION) “active; positive”; (Test System: AMES SALMONELLA TYPHIMURIUM, Strain/Indicator: TA1535, Metabolic Activation: RAT, LIVER, S-9, AROCLOR, Method: PREINCUBATION) “active; positive”; (Test System: AMES SALMONELLA TYPHIMURIUM, Strain/Indicator: TA1535, Metabolic Activation: RAT, LIVER, S-9, SODIUM PHENOBARBITONE, Method: PREINCUBATION) “active; positive”. Also, the mutagenic call reads like this: (Test System: AMES SALMONELLA TYPHIMURIUM, Strain/Indicator: TA1535, Metabolic Activation: RAT, LIVER, S-9, Method: PREINCUBATION) “inactive; negative”; (Test System: AMES SALMONELLA TYPHIMURIUM, Strain/Indicator: TA1535ER, Metabolic Activation: NONE, Method: STANDARD PLATE) “inactive; negative”; (Test System: AMES SALMONELLA TYPHIMURIUM, Strain/Indicator: TA1975, Metabolic Activation: RAT, LIVER, S-9, AROCLOR 1254, Method: PREINCUBATION) “active; positive”; (Test System: AMES SALMONELLA TYPHIMURIUM, Strain/Indicator: YG7104ER, Metabolic Activation: NONE, Method: STANDARD PLATE) “active; positive”; (Test System: AMES SALMONELLA TYPHIMURIUM, Strain/Indicator: YG7108ER, Metabolic Activation: NONE, Method: STANDARD PLATE) “active; positive”; (Test System: CHINESE HAMSTER V-79, Strain/Indicator: V-79/8-AZAGUANINE, Metabolic Activation: RAT, LIVER, S-15, PHENOBARBITAL, Method: STANDARD PLATE) “active; positive”. The mutagenic call reads like this: (Test System: CHINESE HAMSTER V-79, Strain/Indicator: V-79/OUABAIN, Metabolic Activation: HAMSTER, HEPATOCYTES, Method: CELL-MEDIATED) “active; positive”; (Test System: E. COLI, Strain/Indicator: WP2 (HCR), Metabolic Activation: RAT, LIVER, MICROSOMES, KANECHLOR 500, Method: PREINCUBATION) “active; positive”; (Test System: E. COLI, Strain/Indicator: WP2 (HCR-), Metabolic Activation: RAT, LIVER, MICROSOMES, PHENOBARBITAL) “active; positive”.

Turning to `C=CC(=C)C`, the mutagenic call (End Point: IN VIVO CHROMOSOMAL ABERRATIONS, Test System: BONE MARROW CELLS, Species: MOUSE, Strain/Sex: B6C3F1/MALE, Route: INHALATION) is “inactive; negative”; the mutagenic call (End Point: IN VIVO MICRONUCLEUS, Test System: PERIPHERAL BLOOD LYMPHOCYTES, Species: MOUSE, Strain/Sex: B6C3F1/MALE, Route: INHALATION) is “active; positive”; the mutagenic call (Test System: AMES SALMONELLA TYPHIMURIUM, Strain/Indicator: TA98, Metabolic Activation: HAMSTER, LIVER, S-9, AROCLOR 1254 (10%), Method: PREINCUBATION) is “inactive; negative”; the mutagenic call (Test System: AMES SALMONELLA TYPHIMURIUM, Strain/Indicator: TA98, Metabolic Activation: NONE, Method: PREINCUBATION) is “inactive; negative”; the mutagenic call (Test System: AMES SALMONELLA TYPHIMURIUM, Strain/Indicator: TA98, Metabolic Activation: RAT, LIVER, S-9, AROCLOR 1254 (10%), Method: PREINCUBATION) is “inactive; negative”; the mutagenic call (Test System: AMES SALMONELLA TYPHIMURIUM, Strain/Indicator: TA98, Metabolic Activation: S-9, Method: PREINCUBATION) is “inactive; negative”. The mutagenic call reads like this: (Test System: AMES SALMONELLA TYPHIMURIUM, Strain/Indicator: TA100, Metabolic Activation: HAMSTER, LIVER, S-9, AROCLOR 1254 (10%), Method: PREINCUBATION) “inactive; negative”; (Test System: AMES SALMONELLA TYPHIMURIUM, Strain/Indicator: TA100, Metabolic Activation: NONE, Method: PREINCUBATION) “inactive; negative”; (Test System: AMES SALMONELLA TYPHIMURIUM, Strain/Indicator: TA100, Metabolic Activation: RAT, LIVER, S-9, AROCLOR 1254 (10%), Method: PREINCUBATION) “inactive; negative”; (Test System: AMES SALMONELLA TYPHIMURIUM, Strain/Indicator: TA100, Metabolic Activation: S-9, Method: PREINCUBATION) “inactive; negative”; (Test System: AMES SALMONELLA TYPHIMURIUM, Strain/Indicator: TA1535, Metabolic Activation: HAMSTER, LIVER, S-9, AROCLOR 1254 (10%), Method: PREINCUBATION) “inactive; negative”; under setting [1], “inactive; negative”. Moreover, the mutagenic call is “inactive; negative” (Test System: AMES SALMONELLA TYPHIMURIUM, Strain/Indicator: TA1535, Metabolic Activation: RAT, LIVER, S-9, AROCLOR 1254 (10%), Method: PREINCUBATION); “inactive; negative” (Test System: AMES SALMONELLA TYPHIMURIUM, Strain/Indicator: TA1535, Metabolic Activation: S-9, Method: PREINCUBATION); “inactive; negative” (Test System: AMES SALMONELLA TYPHIMURIUM, Strain/Indicator: TA1537, Metabolic Activation: HAMSTER, LIVER, S-9, AROCLOR 1254 (10%), Method: PREINCUBATION); “inactive; negative” (Test System: AMES SALMONELLA TYPHIMURIUM, Strain/Indicator: TA1537, Metabolic Activation: NONE, Method: PREINCUBATION); “inactive; negative” (Test System: AMES SALMONELLA TYPHIMURIUM, Strain/Indicator: TA1537, Metabolic Activation: RAT, LIVER, S-9, AROCLOR 1254 (10%), Method: PREINCUBATION); “inactive; negative” (Test System: E.COLI, Strain/Indicator: WP2UVRA/PKM101, Metabolic Activation: NONE, Method: PREINCUBATION). In addition, the mutagenic call (Test System: E.COLI, Strain/Indicator: WP2UVRA/PKM101, Metabolic Activation: S-9, Method: PREINCUBATION) was “inactive; negative”.

Turning to `C=C1C(=O)O[C@@H]2C[C@]3(C)[C@@H](CCC(C)=O)[C@@H]3C[C@H]12`, the mutagenic call reads like this: (Test System: AMES SALMONELLA TYPHIMURIUM, Strain/Indicator: TA104, Metabolic Activation: NONE, Method: STANDARD PLATE) “inactive; negative”; (Test System: AMES SALMONELLA TYPHIMURIUM, Strain/Indicator: TA104, Metabolic Activation: RAT, LIVER, S-9, Method: STANDARD PLATE) “inactive; negative”.

For the compound `O=C(Nc1ccccc1Br)c1csc([N+](=O)[O-])c1`, the mutagenic call by setting is: (Test System: AMES SALMONELLA TYPHIMURIUM, Strain/Indicator: TA98, Metabolic Activation: NONE, Method: STANDARD PLATE) “active; positive”; (Test System: AMES SALMONELLA TYPHIMURIUM, Strain/Indicator: TA100, Metabolic Activation: NONE, Method: STANDARD PLATE) “active; positive”.
